Measurements published in PubChem BioAssay AID1963968 (Molecular Pharmacology Branch, DTP, NCI, 2024).
“And” between values parts separate entries of the source, which are not always exact repeats. Equal values may be shown once.

System: 945468-187-T-J3-PDC spheroids with HUVEC/MSC, viability
Assay: Anticancer human tumor 945468-187-T-J3-PDC patient-derived rectal carcinoma cell line growth inhibition [PI3K]
Conditions: for viability, T/C: stronger effect = lower value
Procedure, shortened: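 Combination activity was assessed by viability in multicellular tumor spheroids carrying HUVEC and MSC components. Agents were tested with PI3K inhibitors from a Cmax-based top dose (or 10 microM) downward in half-log increments.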

[1] = curve of first compound, second compound 0.0316 µM
[2] = curve of first compound, second compound 0.1 µM
[3] = curve of first compound, second compound 0.316 µM
[4] = curve of first compound, second compound 1 µM
[5] = second compound 0.0316 µM, first compound 0.0316 µM
[6] = second compound 0.0316 µM, first compound 0.1 µM
[7] = second compound 0.0316 µM, first compound 0.316 µM
[8] = second compound 0.0316 µM, first compound 1 µM
[9] = second compound 0.0316 µM, first compound 3.16 µM
[10] = second compound 0.0316 µM, first compound 10 µM
[11] = second compound 0.1 µM, first compound 0.0316 µM
[12] = second compound 0.1 µM, first compound 0.1 µM
[13] = second compound 0.1 µM, first compound 0.316 µM
[14] = second compound 0.1 µM, first compound 1 µM
[15] = second compound 0.1 µM, first compound 3.16 µM
[16] = second compound 0.1 µM, first compound 10 µM
[17] = second compound 0.316 µM, first compound 0.0316 µM
[18] = second compound 0.316 µM, first compound 0.1 µM
[19] = second compound 0.316 µM, first compound 0.316 µM
[20] = second compound 0.316 µM, first compound 1 µM
[21] = second compound 0.316 µM, first compound 3.16 µM
[22] = second compound 0.316 µM, first compound 10 µM
[23] = second compound 1 µM, first compound 0.0316 µM
[24] = second compound 1 µM, first compound 0.1 µM
[25] = second compound 1 µM, first compound 0.316 µM
[26] = second compound 1 µM, first compound 1 µM
[27] = second compound 1 µM, first compound 3.16 µM
[28] = second compound 1 µM, first compound 10 µM
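Further: spheroids exposed to agents for 7 days before viability read.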
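Wherever viability, T/C is given: 100% = DMSO vehicle control viability.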

Q: With `C#Cc1c(F)ccc2cc(O)cc(-c3ncc4c(N5CC6CCC(C5)N6)nc(OCC56CCCN5CC(F)C6)nc4c3F)c12` (stereo not drawn) + CC(Nc1ncnc2nc[nH]c12)c1cc2cccc(Cl)c2c(=O)n1-c1ccccc1 as the compound, how does the IC50 [1] read?
A: > 10 µM

Q: And the IC50 [2]?
A: > 10 µM

Q: What about the IC50 [3] of the same compound?
A: > 10 µM

Q: And the IC50 [4]?
A: > 10 µM

Q: What about the IC50 (curve of first compound, second compound 3.16 µM) of the same compound?
A: > 10 µM

Q: What about the IC50 (curve of first compound, second compound 10 µM) of the same compound?
A: > 10 µM

Q: What about the viability, T/C [5] of the same compound?
A: 91.2%

Q: What about the viability, T/C [6] of the same compound?
A: 93%

Q: And the viability, T/C [7]?
A: 103%

Q: And the viability, T/C [8]?
A: 110%

Q: And the viability, T/C [9]?
A: 113%

Q: And the viability, T/C [10]?
A: 101%

Q: And the viability, T/C [11]?
A: 101%

Q: What about the viability, T/C [12] of the same compound?
A: 105%

Q: And the viability, T/C [13]?
A: 99.8%

Q: And the viability, T/C [14]?
A: 103%

Q: What about the viability, T/C [15] of the same compound?
A: 115%

Q: And the viability, T/C [16]?
A: 101%

Q: What about the viability, T/C [17] of the same compound?
A: 100%

Q: What about the viability, T/C [18] of the same compound?
A: 97.4%

Q: What about the viability, T/C [19] of the same compound?
A: 103%

Q: What about the viability, T/C [20] of the same compound?
A: 107%

Q: And the viability, T/C [21]?
A: 117%

Q: What about the viability, T/C [22] of the same compound?
A: 104%

Q: And the viability, T/C [23]?
A: 100%

Q: What about the viability, T/C [24] of the same compound?
A: 95.2%

Q: What about the viability, T/C [25] of the same compound?
A: 96.8%

Q: And the viability, T/C [26]?
A: 111%

Q: And the viability, T/C [27]?
A: 111%

Q: And the viability, T/C [28]?
A: 97.9%

Q: And the viability, T/C (second compound 3.16 µM, first compound 0.0316 µM)?
A: 102%

Q: What about the viability, T/C (second compound 3.16 µM, first compound 0.1 µM) of the same compound?
A: 105%

Q: And the viability, T/C (second compound 3.16 µM, first compound 0.316 µM)?
A: 106%

Q: And the viability, T/C (second compound 3.16 µM, first compound 1 µM)?
A: 99.8%

Q: What about the viability, T/C (second compound 3.16 µM, first compound 3.16 µM) of the same compound?
A: 110%

Q: What about the viability, T/C (second compound 3.16 µM, first compound 10 µM) of the same compound?
A: 101%

Q: What about the viability, T/C (second compound 10 µM, first compound 0.0316 µM) of the same compound?
A: 100%

Q: And the viability, T/C (second compound 10 µM, first compound 0.1 µM)?
A: 99.5%

Q: And the viability, T/C (second compound 10 µM, first compound 0.316 µM)?
A: 111%

Q: And the viability, T/C (second compound 10 µM, first compound 1 µM)?
A: 126%

Q: What about the viability, T/C (second compound 10 µM, first compound 3.16 µM) of the same compound?
A: 121%

Q: What about the viability, T/C (second compound 10 µM, first compound 10 µM) of the same compound?
A: 92.5%

Q: Which IC50 (curve of first compound, second compound 0.00316 µM) does the source give for `Cn1ncc(Cl)c1-c1cc(C(=O)NC(CN)Cc2cccc(F)c2)sc1Cl` (stereo not drawn) + COc1c(OCCCN2CCOCC2)ccc2c3n(c(=NC(=O)c4cnc(N)nc4)nc12)CCN3 here?
A: 1.01 µM

Q: What about the IC50 (curve of first compound, second compound 0.01 µM) of the same compound?
A: 0.653 µM

Q: And the IC50 [1]?
A: 0.368 µM

Q: What about the IC50 [2] of the same compound?
A: < 0.0316 µM

Q: What about the IC50 [3] of the same compound?
A: < 0.0316 µM

Q: And the IC50 [4]?
A: < 0.0316 µM

Q: What about the viability, T/C (second compound 0.00316 µM, first compound 0.0316 µM) of the same compound?
A: 88.3%

Q: And the viability, T/C (second compound 0.00316 µM, first compound 0.1 µM)?
A: 82.3%

Q: What about the viability, T/C (second compound 0.00316 µM, first compound 0.316 µM) of the same compound?
A: 77.4%

Q: What about the viability, T/C (second compound 0.00316 µM, first compound 1 µM) of the same compound?
A: 48.8%

Q: And the viability, T/C (second compound 0.00316 µM, first compound 3.16 µM)?
A: 32.7%

Q: What about the viability, T/C (second compound 0.00316 µM, first compound 10 µM) of the same compound?
A: 25.2%

Q: What about the viability, T/C (second compound 0.01 µM, first compound 0.0316 µM) of the same compound?
A: 83.4%

Q: And the viability, T/C (second compound 0.01 µM, first compound 0.1 µM)?
A: 83.7%

Q: And the viability, T/C (second compound 0.01 µM, first compound 0.316 µM)?
A: 67%

Q: What about the viability, T/C (second compound 0.01 µM, first compound 1 µM) of the same compound?
A: 36.9%

Q: What about the viability, T/C (second compound 0.01 µM, first compound 3.16 µM) of the same compound?
A: 30.9%

Q: What about the viability, T/C (second compound 0.01 µM, first compound 10 µM) of the same compound?
A: 14.7%

Q: What about the viability, T/C [5] of the same compound?
A: 83%

Q: What about the viability, T/C [6] of the same compound?
A: 80.3%

Q: And the viability, T/C [7]?
A: 51.1%

Q: What about the viability, T/C [8] of the same compound?
A: 29.1%

Q: And the viability, T/C [9]?
A: 29%

Q: What about the viability, T/C [10] of the same compound?
A: 12.9%

Q: What about the viability, T/C [11] of the same compound?
A: 39.4%

Q: And the viability, T/C [12]?
A: 34.8%

Q: And the viability, T/C [13]?
A: 28.4%

Q: And the viability, T/C [14]?
A: 24.3%

Q: What about the viability, T/C [15] of the same compound?
A: 20.5%

Q: And the viability, T/C [16]?
A: 7.64%

Q: And the viability, T/C [17]?
A: 20.5%

Q: And the viability, T/C [18]?
A: 19.1%

Q: And the viability, T/C [19]?
A: 17.4%

Q: And the viability, T/C [20]?
A: 19.6%

Q: And the viability, T/C [21]?
A: 23.4%

Q: What about the viability, T/C [22] of the same compound?
A: 3.82%

Q: And the viability, T/C [23]?
A: 18%

Q: What about the viability, T/C [24] of the same compound?
A: 16.8%

Q: And the viability, T/C [25]?
A: 16.9%

Q: And the viability, T/C [26]?
A: 16.1%

Q: And the viability, T/C [27]?
A: 16%

Q: And the viability, T/C [28]?
A: 1.05%

Q: Which results are given for `CC(Nc1ncnc2nc[nH]c12)c1cc2cccc(Cl)c2c(=O)n1-c1ccccc1` (stereo not drawn)?
A: viability, T/C (compound 0.0316 µM): 100% [middle of 8 runs]; viability, T/C (compound 0.1 µM): 96% [middle of 8 runs]; viability, T/C (compound 0.316 µM): 96% [middle of 8 runs]; viability, T/C (compound 1 µM): 99.5% [middle of 8 runs]; viability, T/C (compound 3.16 µM): 98.2% [middle of 8 runs]; viability, T/C (compound 10 µM): 98.8% [middle of 8 runs]; IC50 (compound alone, run of 06/13/2023): > 10 µM

Q: How did the viability, T/C (compound 0.0316 µM) turn out when `C=CC(=O)N1CCN(c2nc(=O)n(-c3c(C)ccnc3C(C)C)c3nc(-c4c(O)cccc4F)c(F)cc23)C(C)C1` (stereo not drawn) was run?
A: 99.2% and 94% and 95.5%

Q: What about the viability, T/C (compound 0.1 µM) of the same compound?
A: 97.8% and 105% and 93.8%

Q: And the viability, T/C (compound 0.316 µM)?
A: 103% and 94.5% and 98.7%

Q: What about the viability, T/C (compound 1 µM) of the same compound?
A: 85.6% and 92.5% and 98.2%

Q: And the viability, T/C (compound 3.16 µM)?
A: 88.8% and 100% and 113%

Q: And the viability, T/C (compound 10 µM)?
A: 98.1% and 103% and 116%

Q: And the IC50 (curve of compound)?
A: > 10 µM
